Source: US11331369B2, “Endoparasitic depsipeptides” (Zoetis Services LLC, priority 2017, dated 2022)

Key:
Type in all cases: cell-based
[1] = system: third stage larvae of Haemonchus contortus; assay: Haemonchus contortus L3 (HcL3) Assay; conditions: 96 h, read-out: HcL3 Minimum Effective Dose (MED)
[2] = system: 4th stage larvae (L4) of Dirofilaria immitis; assay: Dirofilaria immitis, L4 Stage (DiL4) In Vitro Assay; conditions: Dirofilaria immitis, 72 h, read-out: DiL4 Minimum Effective Dose (MED), approximately 72 hours incubation; L4 larvae assessed for survival or paralysis
[3] = system: microfilariae of Dirofilaria immitis; assay: Dirofilaria immitis, Microfilaria (DiMF) In vitro Assay; conditions: 72 h, read-out: DiMF Minimum Effective Dose (MED), approximately 72 hours incubation, microfilariae assessed for survival or paralysis

SMILES | minimal effective concentration [1] | minimal effective concentration [2] | minimal effective concentration [3]
CCOc1ccn(Cc2ccc(C[C@H]3OC(=O)[C@H](CC(C)C)N(C)C(=O)[C@@H](C)OC(=O)[C@H](CC(C)C)N(C)C(=O)[C@@H](Cc4ccc(Cn5nccc5OCC)cc4)OC(=O)[C@H](CC(C)C)N(C)C(=O)[C@@H](C)OC(=O)[C@H](CC(C)C)N(C)C3=O)cc2)n1 [Example 1a-36, (3S,6R,9S,12R,15S,18R,21S,24R)-6-(4-((3-ethoxy-1H-pyrazol-1-yl)methyl)benzyl)-18-(4-((5-ethoxy-1H-pyrazol-1-yl)methyl)benzyl)-3,9,15,21-tetraisobutyl-4,10,12,16,22,24-hexamethyl-1,7,13,19-tetraoxa-4,10,16,22-tetraazacyclotetracosan-2,5,8,11,14,17,20,23-octaone] | 1 to 10 µM | 0.0001 to 0.001 µM | –
COCc1ccn(Cc2ccc(C[C@H]3OC(=O)[C@H](CC(C)C)N(C)C(=O)[C@@H](C)OC(=O)[C@H](CC(C)C)N(C)C(=O)[C@@H](Cc4ccc(Cn5nccc5COC)cc4)OC(=O)[C@H](CC(C)C)N(C)C(=O)[C@@H](C)OC(=O)[C@H](CC(C)C)N(C)C3=O)cc2)n1 [Example 1a-37, (3S,6R,9S,12R,15S,18R,21S,24R)-3,9,15,21-tetraisobutyl-6-(4-((3-(methoxymethyl)-1H-pyrazol-1-yl)methyl)benzyl)-18-(4-((5-(methoxymethyl)-1H-pyrazol-1-yl)methyl)benzyl)-4,10,12,16,22,24-hexamethyl-1,7,13,19-tetraoxa-4,10,16,22-tetraazacyclotetracosan-2,5,8,11,14,17,20,23-octaone] | 1 to 10 µM | 0.0001 to 0.001 µM | –
Cc1nn(Cc2ccc(C[C@H]3OC(=O)[C@H](CC(C)C)N(C)C(=O)[C@@H](C)OC(=O)[C@H](CC(C)C)N(C)C(=O)[C@@H](Cc4ccc(Cn5nc(C)c(O)c5C)cc4)OC(=O)[C@H](CC(C)C)N(C)C(=O)[C@@H](C)OC(=O)[C@H](CC(C)C)N(C)C3=O)cc2)c(C)c1O [Example 1b-16, (3S,6R,9S,12R,15S,18R,21S,24R)-6,18-bis({4-[(4-hydroxy-3,5-dimethyl-1H-pyrazol-1-yl)methyl]phenyl}methyl)-4,10,12,16,22,24-hexamethyl-3,9,15,21-tetrakis(2-methylpropyl)-1,7,13,19-tetraoxa-4,10,16,22-tetraazacyclotetracosan-2,5,8,11,14,17,20,23-octaone] | 1 to 10 µM | 0.0001 to 0.001 µM | –
CC(C)C[C@H]1C(=O)O[C@H](Cc2ccc(Cn3cc(F)cn3)cc2)C(=O)N(C)[C@@H](CC(C)C)C(=O)O[C@H](C)C(=O)N(C)[C@@H](CC(C)C)C(=O)O[C@H](Cc2ccc(Cn3cc(F)cn3)cc2)C(=O)N(C)[C@@H](CC(C)C)C(=O)O[C@H](C)C(=O)N1C [Example 1b-17, (3S,6R,9S,12R,15S,18R,21S,24R)-6,18-bis(4-((4-fluoro-1H-pyrazol-1-yl)methyl)benzyl)-3,9,15,21-tetraisobutyl-4,10,12,16,22,24-hexamethyl-1,7,13,19-tetraoxa-4,10,16,22-tetraazacyclotetracosan-2,5,8,11,14,17,20,23-octaone] | 1 to 10 µM | 0.0001 to 0.001 µM | –
C#Cc1cnn(Cc2ccc(C[C@H]3OC(=O)[C@H](CC(C)C)N(C)C(=O)[C@@H](C)OC(=O)[C@H](CC(C)C)N(C)C(=O)[C@@H](Cc4ccc(Cn5cc(C#C)cn5)cc4)OC(=O)[C@H](CC(C)C)N(C)C(=O)[C@@H](C)OC(=O)[C@H](CC(C)C)N(C)C3=O)cc2)c1 [Example 1b-32, (3S,6R,9S,12R,15S,18R,21S,24R)-6,18-bis({4-[(4-ethynyl-1H-pyrazol-1 yl)methyl]phenyl}methyl)-4,10,12,16,22,24-hexamethyl-3,9,15,21-tetrakis(2-methylpropyl)-1,7,13,19-tetraoxa-4,10,16,22-tetraazacyclotetracosan-2,5,8,11,14,17,20,23-octaone] | 10 to 100 µM | 0.0001 to 0.001 µM | –
CC(C)C[C@H]1C(=O)O[C@H](Cc2ccc(Cn3nc(C#N)cc3C#N)cc2)C(=O)N(C)[C@@H](CC(C)C)C(=O)O[C@H](C)C(=O)N(C)[C@@H](CC(C)C)C(=O)O[C@H](Cc2ccc(Cn3nc(C#N)cc3C#N)cc2)C(=O)N(C)[C@@H](CC(C)C)C(=O)O[C@H](C)C(=O)N1C [Example 1b-66, 1,1′-(((((2R,5S,8R,11S,14R,17S,20R,23S)-5,11,17,23-tetraisobutyl-4,8,10,16,20,22-hexamethyl-3,6,9,12,15,18,21,24-octaoxo-1,7,13,19-tetraoxa-4,10,16,22-tetraazacyclotetracosane-2,14-diyl)bis(methylene))bis(4,1-phenylene))bis(methylene))bis(1H-pyrazole-3,5-dicarbonitrile)] | ≤ 1 µM | ≤ 0.0001 µM | –
CC(C)C[C@H]1C(=O)O[C@H](Cc2ccc(Cn3cc(-c4ccncn4)cn3)cc2)C(=O)N(C)[C@@H](CC(C)C)C(=O)O[C@H](C)C(=O)N(C)[C@@H](CC(C)C)C(=O)O[C@H](Cc2ccc(Cn3cc(-c4ccncn4)cn3)cc2)C(=O)N(C)[C@@H](CC(C)C)C(=O)O[C@H](C)C(=O)N1C [Example 1b-86, (3S,6R,9S,12R,15S,18R,21S,24R)-3,9,15,21-tetraisobutyl-4,6,10,16,18,22-hexamethyl-12,24-bis(4-((4-(pyrimidin-4-yl)-1H-pyrazol-1-yl)methyl)benzyl)-1,7,13,19-tetraoxa-4,10,16,22-tetraazacyclotetracosan-2,5,8,11,14,17,20,23-octaone] | 10 to 100 µM | 0.0001 to 0.001 µM | –
CC(C)C[C@H]1C(=O)O[C@H](Cc2ccc(Cn3ccc(Cl)n3)cc2)C(=O)N(C)[C@@H](CC(C)C)C(=O)O[C@H](C)C(=O)N(C)[C@@H](CC(C)C)C(=O)O[C@H](Cc2ccc(Cn3ccc(Cl)n3)cc2)C(=O)N(C)[C@@H](CC(C)C)C(=O)O[C@H](C)C(=O)N1C [Example 1b-96, (3S,6R,9S,12R,15S,18R,21S,24R)-6,18-bis(4-((3-chloro-1H-pyrazol-1-yl)methyl)benzyl)-3,9,15,21-tetraisobutyl-4,10,12,16,22,24-hexamethyl-1,7,13,19-tetraoxa-4,10,16,22-tetraazacyclotetracosan-2,5,8,11,14,17,20,23-octaone] | ≤ 1 µM | ≤ 0.0001 µM | –
CCOc1ccn(Cc2ccc(C[C@H]3OC(=O)[C@H](CC(C)C)N(C)C(=O)[C@@H](C)OC(=O)[C@H](CC(C)C)N(C)C(=O)[C@@H](Cc4ccc(Cn5ccc(OCC)n5)cc4)OC(=O)[C@H](CC(C)C)N(C)C(=O)[C@@H](C)OC(=O)[C@H](CC(C)C)N(C)C3=O)cc2)n1 [Example 1b-104, (3S,6R,9S,12R,15S,18R,21S,24R)-6,18-bis(4-((3-ethoxy-1H-pyrazol-1-yl)methyl)benzyl)-3,9,15,21-tetraisobutyl-4,10,12,16,22,24-hexamethyl-1,7,13,19-tetraoxa-4,10,16,22-tetraazacyclotetracosan-2,5,8,11,14,17,20,23-octaone] | ≤ 1 µM | 0.0001 to 0.001 µM | –
COc1ccn(Cc2ccc(C[C@H]3OC(=O)[C@H](CC(C)C)N(C)C(=O)[C@@H](C)OC(=O)[C@H](CC(C)C)N(C)C(=O)[C@@H](Cc4ccc(Cn5ccc(OC)n5)cc4)OC(=O)[C@H](CC(C)C)N(C)C(=O)[C@@H](C)OC(=O)[C@H](CC(C)C)N(C)C3=O)cc2)n1 [Example 1b-115, (3S,6R,9S,12R,15S,18R,21S,24R)-3,9,15,21-tetraisobutyl-6,18-bis(4-((3-methoxy-1H-pyrazol-1-yl)methyl)benzyl)-4,10,12,16,22,24-hexamethyl-1,7,13,19-tetraoxa-4,10,16,22-tetraazacyclotetracosan-2,5,8,11,14,17,20,23-octaone] | ≤ 1 µM | ≤ 0.0001 µM | –
CC(C)C[C@H]1C(=O)O[C@H](Cc2ccc(Cn3ncnc3-c3ccc(Cl)cc3)cc2)C(=O)N(C)[C@@H](CC(C)C)C(=O)O[C@H](C)C(=O)N(C)[C@@H](CC(C)C)C(=O)O[C@H](Cc2ccc(Cn3ncnc3-c3ccc(Cl)cc3)cc2)C(=O)N(C)[C@@H](CC(C)C)C(=O)O[C@H](C)C(=O)N1C [Example 9-58, (3S,6R,9S,12R,15S,18R,21S,24R)-6,18-bis(4-((5-(4-chlorophenyl)-1H-1,2,4-triazol-1-yl)methyl)benzyl)-3,9,15,21-tetraisobutyl-4,10,12,16,22,24-hexamethyl-1,7,13,19-tetraoxa-4,10,16,22-tetraazacyclotetracosan-2,5,8,11,14,17,20,23-octaone] | – | 0.001 to 0.01 µM | 0.01 to 0.1 µM
CC(C)C[C@H]1C(=O)O[C@H](Cc2ccc(CN3C(=O)CSc4cccnc43)cc2)C(=O)N(C)[C@@H](CC(C)C)C(=O)O[C@H](C)C(=O)N(C)[C@@H](CC(C)C)C(=O)O[C@H](Cc2ccc(CN3C(=O)CSc4cccnc43)cc2)C(=O)N(C)[C@@H](CC(C)C)C(=O)O[C@H](C)C(=O)N1C [Example 9-61, (3S,6R,9S,12R,15S,18R,21S,24R)-3,9,15,21-tetraisobutyl-4,6,10,16,18,22-hexamethyl-12,24-bis[[4-[(3-oxopyrido[3,2-b][1,4]thiazin-4-yl)methyl]phenyl]methyl]-1,7,13,19-tetraoxa-4,10,16,22-tetrazacyclotetracosane-2,5,8,11,14,17,20,23-octaone] | – | 0.001 to 0.01 µM | 0.01 to 0.1 µM
CC(C)C[C@H]1C(=O)O[C@H](Cc2ccc(CN3CCOc4ncccc43)cc2)C(=O)N(C)[C@@H](CC(C)C)C(=O)O[C@H](C)C(=O)N(C)[C@@H](CC(C)C)C(=O)O[C@H](Cc2ccccc2)C(=O)N(C)[C@@H](CC(C)C)C(=O)O[C@H](C)C(=O)N1C [Example 10-38, (3S,6R,9S,12R,15S,18R,21S,24R)-6-benzyl-18-[[4-(2,3-dihydropyrido[2,3-b][1,4]oxazin-1-ylmethyl)phenyl]methyl]-3,9,15,21-tetraisobutyl-4,10,12,16,22,24-hexamethyl-1,7,13,19-tetraoxa-4, 10,16,22-tetrazacyclotetracosane-2,5,8,11,14,17,20,23-octaone] | – | 0.0001 to 0.001 µM | 0.001 to 0.01 µM
